Experimental data: EP4772186A1, “USE AND COMPOSITION OF POSTBIOTIC OF LACTOBACILLUS PARACASEI ET-22” (Inner Mongolia Yili Industrial Group Co., Ltd., priority 2023, dated 2025)

Experiments:
biofilm = assay: scanning electron microscopy (SEM) of biofilm on HA disc; format: cell-based, halitosis subjects (saliva); settings: pure components 100 µg/ml, others from 1.0×10^9 CFU/ml, 37°C 10 hours
Method: (§1) Lysate group: A hydroxyapatite (HA) disc was placed in a 96-well plate. 10 µl of saliva was added to the 96-well plate, followed by separate addition of ET-22 viable bacteria (1.0×10^9 CFU/ml), ET-22 heat-inactivated bacterial cells (obtained by inactivating viable bacteria at 1.0×10^9 CFU/ml), and lysate (obtained by inactivating and filtering viable bacteria at 1.0×10^9 CFU/ml), each at 10 µl. Then, 80 µl of SHI medium was added. The 96-well plate was placed in an anaerobic box and cultured anaerobically at 37°C for 10 hours.
as §1, with “NAD” for “Lysate”, “heat-inactivating” for “inactivating”, “NAD (100 µg/ml),” for “lysate (obtained by inactivating and filtering viable bacteria at 1.0×10^9 CFU/ml),”
2-hydroxy-3-phenylpropionic acid group: A hydroxyapatite (HA) disc was placed in a 96-well plate. 10 µl of saliva was added to the 96-well plate, followed by separate addition of ET-22 viable bacteria (1.0×10^9 CFU/ml), ET-22 heat-inactivated bacterial cells (obtained by heat-inactivating viable bacteria at 1.0×10^9 CFU/ml), and 2-hydroxy-3-phenylpropionic acid (100 µg/ml), each at 10 µl. […]

Solobacterium moorei = assay: in vitro oral biofilm model, sequencing: relative abundance; format: cell-based
Method: (§2) 100 µl of saliva was added to a 24-well plate, then 100 µl of the corresponding concentration solution was added respectively to the experimental groups, and finally 800 µl of SHI medium was added. The plate was placed in an anaerobic box and cultured anaerobically at 37°C for 10 hours. Then, the supernatant was discarded, and the multi-species biofilm adhered to the well plate was obtained. After discarding the supernatant from the incubated biofilm, the biofilm adhered to the bottom of the well plate was re-suspended with sterile water by pipetting, transferred to a 1.5 ml centrifuge tube, and stored until gene sequencing was performed.
Based on sequencing results, halitosis-causing pathogenic bacteria in the biofilm were identified. Four key halitosis-causing pathogenic bacteria were identified: Fusobacterium nucleatum, Streptococcus mutans, Prevotella intermedia, and Solobacterium moorei. All four bacteria had been proven to be positively correlated with VSC concentration. […] Therefore, this example adopts lysate, NAD, 2-hydroxy-3-phenylpropionic acid, and polypeptide GP(Hyp)GAG to intervene in halitosis-causing pathogenic bacteria in the biofilm, evaluating changes in the relative abundance of pathogenic bacteria after intervention. Additionally, Prevotella intermedia is a periodontal pathogen that can produce indole via the tryptophan metabolic pathway. […]

[1] = tested on: halitosis virulence factors, including cdl, fadA, mgl, and gtfb; assay: RT-PCR of virulence factors in multi-species biofilm; format: cell-based; settings: compared with CK group, 2^-△△CT method
Method: as §2
This example evaluated the effects of lysate, NAD, 2-hydroxy-3-phenylpropionic acid, polypeptide GP(Hyp)GAG, and peptidoglycan on halitosis virulence factors, including cdl, fadA, mgl, and gtfb. The gene cdl can regulate the expression of L-cysteine […], which can catalyze the degradation of protein substrate to produce VSC, thereby causing halitosis. Fusobacterium nucleatum secretes an amyloid-like adhesin (fadA) via the fap2-like autotransporter protein to enhance its virulence. […]
After the sample RNA was reverse-transcribing into cDNA, RT-PCR reaction was performed to detect biofilm-related virulence factors. Experimental results were calculated using the 2^-△△CT method. […]

O=C(O)C(O)Cc1ccccc1 (stereo not shown) [2-hydroxy-3-phenylpropionic acid]
biofilm structure (SEM observation) (biofilm): the number of bacterial cell layers decreases, and the biofilm becomes thinner | growth of Solobacterium moorei (relative abundance) (Solobacterium moorei; multi-species biofilm, 37°C 10 hours): significantly inhibit the growth | inhibitory effect on Solobacterium moorei (Solobacterium moorei; relative to ET-22 viable bacteria or ET-22 heat-inactivated bacteria): better | expression of virulence factors (cdl, fadA, mgl, gtfb) [1]: significantly regulate
